Converted amounts (≈) assume the structure as drawn. Where two headings read alike, the source gives them in different places.
Legend:
[1] = target: recombinant PI3K δ enzyme (Homo sapiens (Human), UniProt O00329); experiment: In vitro enzyme assay (Kinase-Glo luminescent kinase assay), PI3Kδ; type: biochemical
Method in brief: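 Each recombinant human PI3K isoform at 2.29 μg/mL with 60 μM PIP2 and 10 μM ATP in HEPES pH 7.4, NaCl, CHAPS, MgCl2, DTT, 2 hours at room temperature. Remaining ATP read by Kinase-Glo luminescence relative to no-enzyme blanks.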

[2] = target: PI3Kα (Homo sapiens (Human), UniProt P42336); experiment: In vitro enzyme assay (Kinase-Glo), selectivity, PI3Kα; type: biochemical; details: enzyme 2.29 μg/mL; ATP 10 μM; PIP2 60 μM; 2 hours
Chain of PI3Kα (P42336 whole entry, species assumed): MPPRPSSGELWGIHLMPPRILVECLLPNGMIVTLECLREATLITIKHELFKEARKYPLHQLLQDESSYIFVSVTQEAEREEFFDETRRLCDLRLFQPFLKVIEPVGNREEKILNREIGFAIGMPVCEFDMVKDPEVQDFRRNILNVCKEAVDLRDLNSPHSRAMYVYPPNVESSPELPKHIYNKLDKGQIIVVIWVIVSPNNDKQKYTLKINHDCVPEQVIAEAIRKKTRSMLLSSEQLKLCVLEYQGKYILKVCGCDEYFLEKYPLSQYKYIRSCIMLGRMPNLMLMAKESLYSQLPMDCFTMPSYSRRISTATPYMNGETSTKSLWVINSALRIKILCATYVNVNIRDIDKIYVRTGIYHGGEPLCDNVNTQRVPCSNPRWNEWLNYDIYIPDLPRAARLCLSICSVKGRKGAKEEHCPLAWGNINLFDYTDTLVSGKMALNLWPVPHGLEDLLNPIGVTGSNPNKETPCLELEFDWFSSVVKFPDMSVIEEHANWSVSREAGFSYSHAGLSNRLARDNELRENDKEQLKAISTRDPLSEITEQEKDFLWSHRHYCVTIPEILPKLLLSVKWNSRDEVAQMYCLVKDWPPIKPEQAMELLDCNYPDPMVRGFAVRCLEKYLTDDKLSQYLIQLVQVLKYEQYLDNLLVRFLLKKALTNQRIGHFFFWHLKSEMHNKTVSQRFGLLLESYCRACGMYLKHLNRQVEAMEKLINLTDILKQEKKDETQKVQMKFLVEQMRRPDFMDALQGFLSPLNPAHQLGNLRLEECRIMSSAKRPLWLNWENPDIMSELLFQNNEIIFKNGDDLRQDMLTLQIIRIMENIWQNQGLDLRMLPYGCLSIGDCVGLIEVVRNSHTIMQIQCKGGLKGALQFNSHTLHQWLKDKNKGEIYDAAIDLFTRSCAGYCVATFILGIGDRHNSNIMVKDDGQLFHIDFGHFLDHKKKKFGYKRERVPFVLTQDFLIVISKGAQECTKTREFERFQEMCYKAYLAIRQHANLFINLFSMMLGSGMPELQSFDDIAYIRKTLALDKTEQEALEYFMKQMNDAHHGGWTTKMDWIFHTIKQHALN
Chain of PI3Kα (P27986 whole entry partner, species assumed): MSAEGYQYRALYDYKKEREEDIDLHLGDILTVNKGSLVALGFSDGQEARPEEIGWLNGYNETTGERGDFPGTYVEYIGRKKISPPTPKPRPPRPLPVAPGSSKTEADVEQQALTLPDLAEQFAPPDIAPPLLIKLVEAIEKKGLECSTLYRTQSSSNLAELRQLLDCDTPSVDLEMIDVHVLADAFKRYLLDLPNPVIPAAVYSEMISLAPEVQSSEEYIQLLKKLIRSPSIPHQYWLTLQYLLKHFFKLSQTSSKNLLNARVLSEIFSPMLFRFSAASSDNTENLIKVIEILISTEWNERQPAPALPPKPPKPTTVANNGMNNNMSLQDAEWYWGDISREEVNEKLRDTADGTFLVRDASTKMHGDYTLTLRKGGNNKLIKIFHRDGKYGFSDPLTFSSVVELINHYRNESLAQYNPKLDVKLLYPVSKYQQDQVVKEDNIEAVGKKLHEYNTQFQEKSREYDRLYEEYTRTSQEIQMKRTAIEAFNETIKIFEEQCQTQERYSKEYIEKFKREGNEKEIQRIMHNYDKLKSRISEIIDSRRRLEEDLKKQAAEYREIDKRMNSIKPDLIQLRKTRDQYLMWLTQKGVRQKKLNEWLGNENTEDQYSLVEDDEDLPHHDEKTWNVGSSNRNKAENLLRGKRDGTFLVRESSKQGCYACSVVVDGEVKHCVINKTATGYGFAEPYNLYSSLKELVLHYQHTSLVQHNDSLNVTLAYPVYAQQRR
Protocol: (§1) The Kinase-Glo luminescent kinase assay kit (from Promega) was used to measure kinase activity. In this assay, amount of ATP remaining in solution following a kinase reaction is measured. The effect of compounds on PI3Kδ inhibition was carried out by adding 2.29 μg/ml of recombinant PI3K δ enzyme (Proteros, Germany) to reaction mixture containing assay buffer (50 mM HEPES, pH 7.4, 50 mM NaCl, 0.05% CHAPS) supplemented with 10 mM MgCl2, 5 mM DTT, 60 μM Phosphatidyl inositol bisphosphate (PIP2) and 10 μM ATP in the absence or presence of different concentrations of the compounds in a final volume of 15 μl/well, in a 384 well plate. The reaction mixture was incubated for 2 hours at room temperature. At the end of incubation period the equal volume of Kinase-Glo plus (Promega, V3772), was added per well and the luminescence was measured after incubating for 10 minutes at room temperature in dark. Results were calculated by measuring the luminescence units of test samples to blanks containing no enzyme.
(§2) The compounds of the present invention were tested for their selectivity for PI3Kδ over PI3Kα, PI3Kβ and PI3Kγ following the above assay using specific recombinant enzymes (Proteros, Germany) for each kinase. Assay condition of kinase assay (PI3Kα, PI3Kβ, PI3Kγ and PI3Kδ) was as follows. Enzyme: 2.29 μg/mL; ATP: 10 μM; PIP2 substrate: 60 μM and Reaction Time: 2 hours.

[3] = target: PI3Kβ (Homo sapiens (Human), UniProt P42338); experiment: In vitro enzyme assay (Kinase-Glo), selectivity, PI3Kβ; type: biochemical; details: enzyme 2.29 μg/mL; ATP 10 μM; PIP2 60 μM; 2 hours
Chain of PI3Kβ (P42338 whole entry, species assumed): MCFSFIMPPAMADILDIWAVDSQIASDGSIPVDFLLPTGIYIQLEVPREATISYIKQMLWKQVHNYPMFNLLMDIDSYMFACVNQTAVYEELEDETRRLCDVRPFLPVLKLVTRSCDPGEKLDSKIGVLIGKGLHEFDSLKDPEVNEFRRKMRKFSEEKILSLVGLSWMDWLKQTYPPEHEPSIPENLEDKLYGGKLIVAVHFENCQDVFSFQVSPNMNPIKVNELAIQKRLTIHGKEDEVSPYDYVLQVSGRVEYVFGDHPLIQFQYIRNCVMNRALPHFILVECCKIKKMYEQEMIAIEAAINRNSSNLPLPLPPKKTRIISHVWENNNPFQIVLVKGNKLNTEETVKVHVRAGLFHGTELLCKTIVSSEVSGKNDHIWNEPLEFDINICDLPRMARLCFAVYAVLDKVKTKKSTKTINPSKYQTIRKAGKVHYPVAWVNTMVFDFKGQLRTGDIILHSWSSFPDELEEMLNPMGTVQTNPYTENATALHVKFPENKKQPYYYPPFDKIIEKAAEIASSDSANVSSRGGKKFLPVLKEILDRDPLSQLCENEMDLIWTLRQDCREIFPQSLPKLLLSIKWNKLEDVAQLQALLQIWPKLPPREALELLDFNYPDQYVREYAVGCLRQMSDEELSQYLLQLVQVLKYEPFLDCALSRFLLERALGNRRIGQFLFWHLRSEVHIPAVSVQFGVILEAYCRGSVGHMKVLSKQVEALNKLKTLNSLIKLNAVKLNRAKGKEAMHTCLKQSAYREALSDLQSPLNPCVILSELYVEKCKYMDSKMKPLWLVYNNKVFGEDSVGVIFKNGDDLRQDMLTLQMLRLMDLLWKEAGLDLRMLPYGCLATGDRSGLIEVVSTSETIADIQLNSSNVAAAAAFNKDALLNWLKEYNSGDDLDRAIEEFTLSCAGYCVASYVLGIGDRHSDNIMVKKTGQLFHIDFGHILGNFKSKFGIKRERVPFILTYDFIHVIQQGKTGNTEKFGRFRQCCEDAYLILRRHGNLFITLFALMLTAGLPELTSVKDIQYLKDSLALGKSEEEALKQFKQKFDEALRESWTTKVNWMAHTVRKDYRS
Chain of PI3Kβ (P27986 whole entry partner, species assumed): as the sequence (P27986 whole entry partner, species assumed) above
Protocol: as §1, §2

[4] = target: PI3Kγ (Homo sapiens (Human), UniProt P48736); experiment: In vitro enzyme assay (Kinase-Glo), selectivity, PI3Kγ; type: biochemical; details: enzyme 2.29 μg/mL; ATP 10 μM; PIP2 60 μM; 2 hours
Chain of PI3Kγ (P48736 whole entry, species assumed): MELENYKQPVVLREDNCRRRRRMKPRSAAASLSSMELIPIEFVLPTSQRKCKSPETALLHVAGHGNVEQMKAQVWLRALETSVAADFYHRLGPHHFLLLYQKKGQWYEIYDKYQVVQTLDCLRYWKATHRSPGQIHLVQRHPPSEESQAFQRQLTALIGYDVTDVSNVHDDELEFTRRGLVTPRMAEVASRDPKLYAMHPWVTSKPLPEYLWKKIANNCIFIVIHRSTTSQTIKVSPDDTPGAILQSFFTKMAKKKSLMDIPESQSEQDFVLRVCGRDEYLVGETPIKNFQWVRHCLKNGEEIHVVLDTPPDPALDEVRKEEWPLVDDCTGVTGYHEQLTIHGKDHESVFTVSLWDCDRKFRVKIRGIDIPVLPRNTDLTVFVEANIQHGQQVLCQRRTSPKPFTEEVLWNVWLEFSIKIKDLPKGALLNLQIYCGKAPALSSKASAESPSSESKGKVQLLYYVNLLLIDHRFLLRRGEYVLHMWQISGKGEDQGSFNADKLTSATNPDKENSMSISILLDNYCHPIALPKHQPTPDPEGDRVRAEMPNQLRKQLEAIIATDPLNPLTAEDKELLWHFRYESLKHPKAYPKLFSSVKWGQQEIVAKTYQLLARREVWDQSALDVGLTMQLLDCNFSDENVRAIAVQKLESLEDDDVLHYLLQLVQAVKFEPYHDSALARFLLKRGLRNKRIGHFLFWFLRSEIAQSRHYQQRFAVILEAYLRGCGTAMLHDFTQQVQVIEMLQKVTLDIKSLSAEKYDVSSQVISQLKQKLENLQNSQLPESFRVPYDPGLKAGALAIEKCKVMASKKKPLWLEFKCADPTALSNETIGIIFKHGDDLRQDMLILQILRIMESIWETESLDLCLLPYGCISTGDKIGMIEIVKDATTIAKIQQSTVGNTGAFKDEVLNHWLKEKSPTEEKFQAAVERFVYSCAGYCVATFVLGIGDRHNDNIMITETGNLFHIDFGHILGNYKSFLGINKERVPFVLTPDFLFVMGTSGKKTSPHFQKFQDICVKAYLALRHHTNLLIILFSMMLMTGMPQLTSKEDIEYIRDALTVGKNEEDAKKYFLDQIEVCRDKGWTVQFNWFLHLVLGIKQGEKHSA
Protocol: The Kinase-Glo luminescent kinase assay kit (from Promega) was used to measure kinase activity. In this assay, amount of ATP remaining in solution following a kinase reaction is measured. […] The reaction mixture was incubated for 2 hours at room temperature. At the end of incubation period the equal volume of Kinase-Glo plus (Promega, V3772), was added per well and the luminescence was measured after incubating for 10 minutes at room temperature in dark. Results were calculated by measuring the luminescence units of test samples to blanks containing no enzyme.
The compounds of the present invention were tested for their selectivity for PI3Kδ over PI3Kα, PI3Kβ and PI3Kγ following the above assay using specific recombinant enzymes (Proteros, Germany) for each kinase. Assay condition of kinase assay (PI3Kα, PI3Kβ, PI3Kγ and PI3Kδ) was as follows.

[5] = tested on: IFN-γ release in mouse splenocytes; experiment: Phytohaemagglutinin (PHA)-induced interferon (IFN)-gamma release in mouse splenocytes; parameters: species or system C57BL/6 mouse; details: Splenocyte, PHA (10 μg/ml) for 48 hours, IFN-γ by ELISA, read-out: Cell Based IC50
Protocol: Effect of compounds on mitogen-induced IFN-γ release in mouse splenocytes was used to evaluate their potency in cell-based assay system [Blood (2010) 115: 2203-2213; Current Protocols in Immunology (2004) 3.12.1-3.12.20].
Mouse splenocytes were obtained from the spleen of a C57BL/6 mouse and plated at a density of 0.25 million cells/well in a 96 well tissue culture plate. The effect of the compounds to inhibit IFN-γ release was evaluated by treating the splenocytes with various concentrations of the test compounds followed by stimulation with PHA (10 μg/ml) for 48 hours. The IFN-γ release in the cell culture supernatant was quantified by ELISA as per the manufacturer's protocol (BD Biosciences, #555138).

[6] = tested on: eosinophil count in bronchoalveolar lavage fluid; experiment: Ovalbumin-induced airway eosinophilia model in Brown Norway rats; type: in vivo; details: @ 3 mg/Kg, oral; ovalbumin challenge
Protocol: The protocols were followed in similar fashion as described in Clin. Exp. Immunol., 2001; 126:9-15 and J. Pharmacol. Exp. Ther., 2011; 337:145-54. Male Brown Norway rats were sensitized by intraperitoneal injection of a suspension of 1 mg of ovalbumin and 100 mg of aluminum hydroxide (in sterile 0.9% saline) on day 0 and 7. On day 14, the compounds were administered to the rats by oral gavage. One hour after oral administration, the animals were placed into a perspex chamber and exposed to an aerosol of 5% ovalbumin for ten minutes. Compounds were administered on Day 14 and Day 15 either once or twice daily. Forty-eight hours after ovalbumin challenge, the animals were euthanized and bronchoalveolar lavage fluid was collected. The cell suspensions were processed and absolute eosinophil count was enumerated.

[7] = Solubility in Japanese Pharmacopeia First Fluid (JP1) and Second Fluid (JP2); type: physicochemical; details: thermodynamic from solid, room temperature
Protocol: A 10 mmol/L solution of the test compound was prepared in DMSO and dispensed 100 μL of 10 mmol/L DMSO stock solutions into labeled glass tubes in duplicate, one for Japanese Pharmacopeia First Fluid (JP1) and second for Japanese Pharmacopeia Second Fluid (JP2). After evaporation of DMSO from each tube, 500 μL of JP1 and JP2 fluid were added in each tube, respectively. These tubes were sonicated for 1 minute and placed on shaker for 30 minutes with an interval of 30 seconds at every 5 minute. Tubes were placed in dark at room temperature for 1 hour and solution was filtered through membrane filter. The filtrate was diluted 2-fold and 10-fold. The resulting test solutions was analyzed and quantified against the standards using UPLC (standard preparation-10 mmol/L solution in DMSO is serially diluted with 50% aqueous acetonitrile solution to prepare 2 solutions; 100 μmol/L standard solution and 5 μmol/L standard solution).

[8] = enzyme 2.29 μg/mL, ATP 10 μM, PIP2 60 μM, 2 hours
[9] = pH 1.2, simulated gastric fluid, Japanese Pharmacopeia First Fluid (JP1), read-out: Solubility JP1
[10] = pH 6.8, aqueous buffer, Japanese Pharmacopeia Second Fluid (JP2), read-out: Solubility JP2

Chain of recombinant PI3K δ enzyme (O00329 whole entry, species assumed, canonical isoform): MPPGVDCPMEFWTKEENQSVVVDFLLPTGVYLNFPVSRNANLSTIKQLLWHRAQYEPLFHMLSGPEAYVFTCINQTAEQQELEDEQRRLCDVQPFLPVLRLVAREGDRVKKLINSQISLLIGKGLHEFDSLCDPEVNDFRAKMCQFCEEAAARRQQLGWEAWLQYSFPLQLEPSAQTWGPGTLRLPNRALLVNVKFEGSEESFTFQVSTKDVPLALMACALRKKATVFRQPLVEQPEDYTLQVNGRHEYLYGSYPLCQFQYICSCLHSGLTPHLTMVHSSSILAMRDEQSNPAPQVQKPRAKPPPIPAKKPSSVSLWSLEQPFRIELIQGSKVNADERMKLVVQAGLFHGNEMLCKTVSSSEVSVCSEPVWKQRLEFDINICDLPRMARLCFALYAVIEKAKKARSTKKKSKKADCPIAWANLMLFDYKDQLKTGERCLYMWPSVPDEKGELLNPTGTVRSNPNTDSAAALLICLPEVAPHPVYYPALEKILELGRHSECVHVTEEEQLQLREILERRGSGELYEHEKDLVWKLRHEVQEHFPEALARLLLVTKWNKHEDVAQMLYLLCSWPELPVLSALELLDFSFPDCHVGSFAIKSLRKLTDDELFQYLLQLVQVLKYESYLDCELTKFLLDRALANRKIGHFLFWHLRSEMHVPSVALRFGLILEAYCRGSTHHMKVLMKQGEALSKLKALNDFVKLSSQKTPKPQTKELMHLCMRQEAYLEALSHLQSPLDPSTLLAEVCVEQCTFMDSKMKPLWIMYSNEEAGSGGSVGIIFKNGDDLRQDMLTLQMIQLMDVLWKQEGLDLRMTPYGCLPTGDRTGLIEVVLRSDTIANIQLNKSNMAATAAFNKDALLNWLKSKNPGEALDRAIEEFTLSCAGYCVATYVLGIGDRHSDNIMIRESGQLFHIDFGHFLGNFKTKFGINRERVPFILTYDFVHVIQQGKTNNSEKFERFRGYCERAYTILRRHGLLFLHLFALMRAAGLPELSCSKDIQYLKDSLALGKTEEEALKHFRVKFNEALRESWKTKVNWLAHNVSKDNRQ
Chain of recombinant PI3K δ enzyme (P27986 whole entry partner, species assumed, canonical isoform): as the sequence (P27986 whole entry partner, species assumed) above

SMILES | IC50 [1] [nM] | IC50 [1, 8] [nM] | IC50 [2] [nM] | IC50 [3] [nM] | IC50 [4] [nM] | IC50 [5] [nM] | solubility at 30 min [7, 9] [µg/mL] | solubility at 30 min [7, 10] [µg/mL] | Percent inhibition of BAL eosinophil count at 3 mg/kg [6] [%]
Cn1cc(-c2nc(N3CCOCC3)c3nc(C(=O)N4CCC5(CC4)COC5)[nH]c3n2)cn1 [compound 3, [2-(1-Methyl-1H-pyrazol-4-yl)-6-(morpholin-4-yl)-9H-purin-8-yl](2-oxa-7-azaspiro[3.5]non-7-yl)methanone] | 15 | 15 | > 1000 | > 10000 | > 1000 | 55 | – | – | 46
O=C(c1nc2c(N3CCOCC3)nc(-c3cn[nH]c3)nc2[nH]1)N1CCC(N2CCOCC2)CC1 [compound 42, [4-(Morpholin-4-yl)piperidin-1-yl][6-(morpholin-4-yl)-2-(1H-pyrazol-4-yl)-9H-purin-8-yl]methanone] | – | – | – | – | – | – | > 1510 | 124 (≈ 265 µM) | –
Cn1cc(-c2cc(N3CCOCC3)c3nc(C(=O)N4CCC(N5CCOCC5=O)CC4)[nH]c3n2)cn1 [compound 77, 4-(1-{[5-(1-Methyl-1H-pyrazol-4-yl)-7-(morpholin-4-yl)-3H-imidazo[4,5-b]pyridin-2-yl]carbonyl}piperidin-4-yl)morpholin-3-one] | 9 | – | – | – | – | – | 1430 (≈ 2890 µM) | 251 (≈ 508 µM) | –
Cn1cc(-c2nc3[nH]c(C(=O)N4CCC5(CC4)COC5)nc3c(N3CCOCC3)c2F)cn1 [compound 79, [6-Fluoro-5-(1-methyl-1H-pyrazol-4-yl)-7-(morpholin-4-yl)-3H-imidazo[4,5-b]pyridin-2-yl](2-oxa-7-azaspiro[3.5]non-7-yl)methanone] | 20 | 20 | > 1000 | > 10000 | > 1000 | 13 | – | – | –
Cn1cc(-c2nc3[nH]c(C(=O)N4CCN(C(C)(C)C(N)=O)CC4)nc3c(N3CCOCC3)c2F)cn1 [compound 82, 2-(4-{[6-Fluoro-5-(1-methyl-1H-pyrazol-4-yl)-7-(morpholin-4-yl)-3H-imidazo[4,5-b]pyridin-2-yl]carbonyl}piperazin-1-yl)-2-methylpropanamide] | 11 | 11 | > 1000 | > 10000 | > 1000 | 346 | – | – | –
Cc1nn(C)cc1-c1nc2[nH]c(C(=O)N3CCC(C(C)(C)O)CC3)nc2c(N2CCOCC2)c1F [compound 84, [5-(1,3-Dimethyl-1H-pyrazol-4-yl)-6-fluoro-7-(morpholin-4-yl)-3H-imidazo[4,5-b]pyridin-2-yl][4-(2-hydroxypropan-2-yl)piperidin-1-yl]methanone] | 5 | – | – | – | – | – | – | – | 26
Cc1nn(C)cc1-c1nc2[nH]c(C(=O)N3CCC(C(N)=O)CC3)nc2c(N2CCOCC2)c1F [compound 85, 1-{[5-(1,3-Dimethyl-1H-pyrazol-4-yl)-6-fluoro-7-(morpholin-4-yl)-3H-imidazo[4,5-b]pyridin-2-yl]carbonyl}piperidine-4-carboxamide] | 19 | 19 | > 1000 | > 10000 | > 1000 | 1270 | – | – | –
Cc1nn(C)cc1-c1nc2[nH]c(C(=O)N3CCC(O)CC3)nc2c(N2CCOCC2)c1F [compound 86, [5-(1,3-Dimethyl-1H-pyrazol-4-yl)-6-fluoro-7-(morpholin-4-yl)-3H-imidazo[4,5-b]pyridin-2-yl](4-hydroxypiperidin-1-yl)methanone] | 27 | 27 | > 1000 | > 10000 | 8460 | 222 | – | – | –
Cc1nn(C)cc1-c1cc(N2CCOCC2)c2nc(C(=O)N3CCC(N4CCOCC4)CC3)[nH]c2n1 [compound 94, [5-(1,3-Dimethyl-1H-pyrazol-4-yl)-7-(morpholin-4-yl)-3H-imidazo[4,5-b]pyridin-2-yl][4-(morpholin-4-yl)piperidin-1-yl]methanone] | 4 | 4 | 971 | 9910 | 3030 | 11 | 808 (≈ 1630 µM) | 754 (≈ 1520 µM) | –

Continued, in another order:

IC50 [1] [nM] | IC50 [1, 8] [nM] | IC50 [2] [nM] | IC50 [3] [nM] | IC50 [4] [nM] | IC50 [5] [nM] | solubility at 30 min [7, 9] [µg/mL] | solubility at 30 min [7, 10] [µg/mL] | SMILES | Percent inhibition of BAL eosinophil count at 3 mg/kg [6] [%]
3 | 3 | 1080 | > 10000 | 961 | 183 | > 936 | > 923 | Cc1nn(C)cc1-c1nc2[nH]c(C(=O)N3CCC(N(C)C)CC3)nc2c(N2CCOCC2)c1F [compound 97, [4-(Dimethylamino)piperidin-1-yl][5-(1,3-dimethyl-1H-pyrazol-4-yl)-6-fluoro-7-(morpholin-4-yl)-3H-imidazo[4,5-b]pyridin-2-yl]methanone] | –
6 | 6 | > 10000 | > 10000 | > 10000 | 43 | – | – | Cn1cc(-c2nc3[nH]c(C(=O)N4CCC(N5CCOCC5)CC4)nc3c(N3CCOCC3)c2F)cn1 [compound 98, [6-Fluoro-5-(1-methyl-1H-pyrazol-4-yl)-7-(morpholin-4-yl)-3H-imidazo[4,5-b]pyridin-2-yl][4-(morpholin-4-yl)piperidin-1-yl]methanone] | –
29 | – | – | – | – | – | 816 (≈ 1790 µM) | 321 (≈ 703 µM) | CN(C)C1CCN(C(=O)c2nc3c(N4CCOCC4)c(F)c(-c4cnn(C)c4)nc3[nH]2)CC1 [compound 99, [4-(Dimethylamino)piperidin-1-yl][6-fluoro-5-(1-methyl-1H-pyrazol-4-yl)-7-(morpholin-4-yl)-3H-imidazo[4,5-b]pyridin-2-yl]methanone] | –
19 | – | – | – | – | – | 932 (≈ 1940 µM) | 560 (≈ 1170 µM) | Cn1cc(-c2cc(N3CCOCC3)c3nc(C(=O)N4CCC(N5CCOCC5)CC4)[nH]c3n2)cn1 [compound 102, [5-(1-Methyl-1H-pyrazol-4-yl)-7-(morpholin-4-yl)-3H-imidazo[4,5-b]pyridin-2-yl][4-(morpholin-4-yl)piperidin-1-yl]methanone] | –
